Reference: patent publication US8841332B2, “Fungicidal N-(2-phenoxyethyl)carboxamide derivatives and their aza, thia and sila analogues” (Bayer Intellectual Property GmbH, priority 2008, dated 2014)

Test: logP determination by HPLC on a reversed-phase column (C 18), EEC Directive 79/831 Annex V.A8
Type: physicochemical
Conditions: HPLC reversed-phase C 18, 40° C., 0.1% aqueous formic acid and acetonitrile, gradient 10% to 90% acetonitrile
Description: In the table 1, the logP values were determined in accordance with EEC Directive 79/831 Annex V.A8 by HPLC (High Performance Liquid Chromatography) on a reversed-phase column (C 18), using the method described below: Temperature: 40° C.; Mobile phases: 0.1% aqueous formic acid and acetonitrile; linear gradient from 10% acetonitrile to 90% acetonitrile. Calibration was carried out using unbranched alkan-2-ones (comprising 3 to 16 carbon atoms) with known logP values (determination of the logP values by the retention times using linear interpolation between two successive alkanones).

logP | Structure (SMILES)
3.78 | CC(COc1ccc(Cl)cc1Cl)N(C(=O)c1cn(C)nc1I)C1CC1 (centres unmarked) [Example 19]
4.72 | Cn1cc(C(=O)N(CCOc2c(Cl)cc(Cl)cc2Cl)C2CCCC2)c(C(F)F)n1 [Example 24]
